According to US8809304B2, “Amine compound and use thereof for medical purposes” (Mitsubishi Tanabe Pharma Corporation, priority 2005, dated 2014):
Where a name gives a salt, the structure may show the parent alone.

System: peripheral blood lymphocyte count
Test: Evaluation of peripheral blood lymphocyte count-decreasing effect in mice
Assay type: in vivo
Conditions: male BALB/cAnNCrj mice, intraperitoneally administered, 24 hr after administration

| SMILES | mouse peripheral blood lymphocyte count-decreasing effect, ED50 value (dose necessary for 50% reduction of the lymphocyte count of vehicle group as 100%) [mg/kg body weight] |
| --- | --- |
| CCCCCCCOc1ccc(CCC(N)(CO)CO)cc1C.Cl [comparison compound 1-7, 2-amino-2-[2-(4-heptyloxy-3-methylphenyl)ethyl]propane-1,3-diol Hydrochloride, reference compound] | 0.64 |
| CCCCCCCOc1ccc(CCC(N)(CO)CO)cc1C(F)(F)F.Cl [compound 1-3, 2-amino-2-[2-(4-heptyloxy-3-trifluoromethylphenyl)ethyl]propane-1,3-diol Hydrochloride] | 0.04 |
| CCCCCCCOc1ccc(CCC(C)(N)CO)cc1C(F)(F)F.Cl (stereo not drawn) [compound 13-6, 2-amino-4-(4-heptyloxy-3-trifluoromethylphenyl)-2-methylbutanol Hydrochloride] | 0.02 |
| CCCCCCCOc1ccc(CC[C@@](C)(N)CO)cc1C(F)(F)F.Cl [compound 15-3, (R)-2-amino-4-(4-heptyloxy-3-trifluoromethylphenyl)-2-methylbutanol Hydrochloride] | 0.02 |
| CCCCCCCOc1ccc(/C=C/C(N)(CO)CO)cc1C(F)(F)F [compound 28-6, (E)-2-amino-2-[2-(4-heptyloxy-3-trifluoromethylphenyl)vinyl]propane-1,3-diol Hydrochloride] | 0.03 |

System: not listed separately
Test: Effect on heart rate in rat telemetry
Assay type: in vivo, Sprague-Dawley (IGS) rats
Conditions: orally administered, up to the dose of 30 mg/kg body weight, measured from 24 hr before to 72 hr after administration
Description: Effect on Heart Rate in Rat Telemetry
Male Sprague-Dawley (IGS) rats were anesthetized by intraperitoneal administration of Nembutal (manufactured by DAINIPPON PHARMACEUTICAL CO., LTD.), a pressure sensor connected to a telemetry transmitter (TL11M2-C50-PTX, manufactured by Data Sciences International) was inserted into the abdominal artery, and the transmitter was subcutaneously dwelled in the abdomen. The data of blood pressure and heart rate were recorded by an analysis soft (Dataquest A.R.T., Data Science) via a receiver (RPC-1, manufactured by Data Sciences International). When 10 days to 2 weeks elapsed from the surgery, recovery of heart rate circadian rhythm was confirmed, and the rats were subjected to the experiment. The compound of the present invention was suspended in 0.5% hydroxypropylmethylcellulose (manufactured by Shin-Etsu Chemical Co., Ltd.) and orally administered. The heart rate was measured from 24 hr before the administration to 72 hr after the administration.

| SMILES | effect on heart rate of the rat |
| --- | --- |
| CCCCCCCOc1ccc(CCC(N)(CO)CO)cc1C(F)(F)F.Cl [compound 1-3, 2-amino-2-[2-(4-heptyloxy-3-trifluoromethylphenyl)ethyl]propane-1,3-diol Hydrochloride] | did not affect the heart rate |
